Where two headings read alike, the source gives them in different places.
Tests used:
phospho-ERK = assay: Cellular phospho-ERK assay; format: cell-based; settings: NCI-H358 cells, 2 hour incubation, ratio of p-Erk vs total Erk, read-out: IC50 (nM) pERK (Cell)
Procedure, shortened: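 NCI-H358 cells seeded overnight, then exposed to compound dose-response titrations for 2 hours at 37° C. in RPMI. Lysates assayed by AlphaLISA SureFire Ultra multiplex for p-Erk and total Erk; ratio p-Erk/total Erk used as readout, IC50 from 4-parameter logistic fit.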

[1] = biological target: Biotinylated KRAS G12C protein (Homo sapiens (Human), UniProt P01116, C118S/C51S/C80L/G12C); assay: SOS-catalyzed nucleotide exchange assay (TR-FRET); format: biochemical; settings: in vitro apparent potency; preincubation time of 60 minutes prior to addition of SOS
Sequence of Biotinylated KRAS G12C protein (P01116 other isoform, or with tags, fused parts or gaps, stated change not applied): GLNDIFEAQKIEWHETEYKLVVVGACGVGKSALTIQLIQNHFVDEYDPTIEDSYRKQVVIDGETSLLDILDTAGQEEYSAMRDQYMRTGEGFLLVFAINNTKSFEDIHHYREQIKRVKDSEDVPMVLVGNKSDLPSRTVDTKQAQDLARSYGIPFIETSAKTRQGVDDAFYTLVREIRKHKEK
Procedure, shortened: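 Biotinylated KRAS G12C preloaded with Bodipy-GDP and Tb-streptavidin, then incubated with compound (10-point, 3-fold series) for 60 min at RT. Exchange started with SOS and GTP for 60 min. TR-FRET 520/495 ratio normalised to DMSO and saturating-inhibitor controls; four-parameter fit.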

IC50 (phospho-ERK)	IC50 [1]	IC50 (phospho-ERK; Homo sapiens, NCI-H358, 2 h)	SMILES
96 nM	1.1 nM		C=CC(=O)N1C[C@H](C)N(c2nc(=O)n3c4nc(c(F)cc24)-c2c(F)cccc2OCCCCc2cnc(C(C)C)c-3c2C)C[C@H]1C [Example 88, 2-[(2S,5R)-2,5-dimethyl-4-(prop-2-enoyl)piperazin-1-yl]-19,22-difluoro-24-methyl-7-(propan-2-yl)-11,12,13,14-tetrahydro-4H-1,20-etheno-6,10-(metheno)pyrimido[1,6-k][1,8,11,13]benzoxatriazacyclohexadecin-4-one]
11 nM	4.3 nM		C=CC(=O)N1C[C@H](C)N(c2nc(=O)n3c4nc(c(C)cc24)-c2c(F)ccc(F)c2OCCCc2ccnc(C(C)C)c2-3)C[C@H]1C (single isomer, unassigned) [Example 120]
23 nM	4.5 nM		C=CC(=O)N1CC(C)N(c2nc(=O)n3c4nc(c(C)cc24)-c2c(F)ccc(F)c2OCCOc2ccnc(C(C)C)c2-3)CC1C [Example 110, 2-[(2S,5R)-2,5-dimethyl-4-(prop-2-enoyl)piperazin-1-yl]-14,17-difluoro-20-methyl-6-(propan-2-yl)-11,12-dihydro-4H-1,18-ethenopyrido[4,3-e]pyrimido[1,6-g][1,4,7,9]benzodioxadiazacyclododecin-4-one]
	38 nM	119 nM	C=CC(=O)N1C[C@H](C)N(c2nc(=O)n3c4nc(c(F)cc24)-c2cc(F)c(F)cc2OCCOc2ccnc(C(C)C)c2-3)C[C@H]1C [Example 84, 2-[(2S,5R)-2,5-dimethyl-4-(prop-2-enoyl)piperazin-1-yl]-15,16,20-trifluoro-6-(propan-2-yl)-11,12-dihydro-4H-1,18-(ethanediylidene)pyrido[4,3-e]pyrimido[1,6-g][1,4,7,9]benzodioxadiazacyclododecin-4-one]
	11 nM	49 nM	C=CC(=O)N1CCN(c2nc(=O)n3c4nc(c(F)cc24)-c2c(F)cccc2OCCCc2ccnc(C(C)C)c2-3)[C@@H](CC)C1 [Example 98, 2-[(25)-2-ethyl-4-(prop-2-enoyl)piperazin-1-yl]-17,20-difluoro-6-(propan-2-yl)-11,12-dihydro-4H,10H-1,18-(ethanediylidene)pyrido[4,3-e]pyrimido[1,6-g][1,7,9] benzoxadiazacyclododecin-4-one]
34 nM	6.9 nM		C=CC(=O)N1[C@H](C)CN(c2nc(=O)n3c4nc(c(F)cc24)-c2c(F)cccc2OCCCCc2ccnc(C(C)C)c2-3)C[C@@H]1C [Example 7, 2-[(3R,5S)-3,5-dimethyl-4-(prop-2-enoyl)piperazin-1-yl]-18,21-difluoro-6-(propan-2-yl)-10,11,12,13-tetrahydro-4H-1,19-ethenopyrido[4,3-f]pyrimido[1,6-h][1,8,10]benzoxadiazacyclotridecin-4-one]
112 nM	43 nM		C=CC(=O)N1C[C@H](C)N(c2nc(=O)n3c4nc(c(F)cc24)-c2cccc(F)c2OCCOc2ccnc(C(C)C)c2-3)C[C@H]1C [Example 114, 2-[(2S,5R)-2,5-dimethyl-4-(prop-2-enoyl)piperazin-1-yl]-14,20-difluoro-6-(propan-2-yl)-11,12-dihydro-4H-1,18-(ethanediylidene)pyrido[4,3-e]pyrimido[1,6-g][1,4,7,9]benzodioxadiazacyclododecin-4-one]
44 nM	17 nM		C=CC(=O)N1CCN(c2nc(=O)n3c4nc(c(F)cc24)-c2cccc4cnn(c24)CCCc2ccnc(C(C)C)c2-3)[C@@H](C)C1 (single isomer, unassigned) [Example 117]
13 nM	6.5 nM		C=CC(=O)N1C[C@H](C)N(c2nc(=O)n3c4nc(c(F)cc24)-c2c(cccc2C(F)(F)F)OCCOc2ccnc(C(C)C)c2-3)C[C@H]1C [Example 73, 2-[(2S,5R)-2,5-dimethyl-4-(prop-2-enoyl)piperazin-1-yl]-20-fluoro-6-(propan-2-yl)-17-(trifluoromethyl)-11,12-dihydro-4H-1,18-(ethanediylidene)pyrido[4,3-e]pyrimido[1,6-g][1,4,7,9]benzodioxadiazacyclododecin-4-one]
	19 nM	395 nM	C=CC(=O)N1CCN(c2nc(=O)n3c4nc(c(F)cc24)-c2c(F)cccc2OCCCc2ccnc(C(C)C)c2-3)C[C@@H]1CC#N (single isomer, unassigned) [Example 11a]
	0.74 nM	14 nM	C=CC(=O)N1C[C@H](C)N(c2nc(=O)n3c4nc(c(F)cc24)-c2c(ccc(F)c2F)OCC(F)(F)CCc2ncnc(C(C)C)c2-3)C[C@H]1C [Example 58, 2-[(2S,5R)-2,5-dimethyl-4-(prop-2-enoyl)piperazin-1-yl]-12,12,17,18,21-pentafluoro-6-(propan-2-yl)-10,11,12,13-tetrahydro-4H-1,19-(ethanediylidene)dipyrimido [4,5-f:1′,6′-h][1,8,10] benzoxadiazacyclo-tridecin-4-one]
19 nM	1.8 nM		C=CC(=O)N1C[C@H](C)N(c2nc(=O)n3c4nc(c(F)cc24)-c2c(F)cccc2OCCOc2c(Cl)cnc(C(C)C)c2-3)C[C@H]1C [Example 70, 9-chloro-2-[(2S,5R)-2,5-dimethyl-4-(prop-2-enoyl)piperazin-1-yl]-17,20-difluoro-6-(propan-2-yl)-11,12-dihydro-4H-1,18-(ethanediylidene)pyrido[4,3-e]pyrimido[1,6-g][1,4,7,9]benzodioxadiazacyclododecin-4-one]
3 nM	0.56 nM		C=CC(=O)N1CCN(c2nc(=O)n3c4nc(c(F)cc24)-c2c(ccc(F)c2F)OCC(F)(F)CCc2ccnc(C(C)C)c2-3)[C@@H](C)C1 [Example 97, 12,12,17,18,21-pentafluoro-2-[(2S)-2-methyl-4-(prop-2-enoyl)piperazin-1-yl]-6-(propan-2-yl)-10,11,12,13-tetrahydro-4H-1,19-(ethanediylidene)pyrido[4,3-f]pyrimido[1,6-h][1,8,10]benzoxadiazacyclotridecin-4-one]
	2.4 nM	18 nM	C=CC(=O)N1C[C@H](C)N(c2nc(=O)n3c4nc(c(F)cc24)-c2c(ccc(F)c2F)OCCCc2ccnc(C(C)C)c2-3)C[C@H]1C [Example 78, 2-[(2S,5R)-2,5-dimethyl-4-(prop-2-enoyl)piperazin-1-yl]-16,17,20-trifluoro-6-(propan-2-yl)-11,12-dihydro-4H,10H-1,18-ethenopyrido[4,3-e]pyrimido[1,6-g][1,7,9]benzoxadiazacyclododecin-4-one]
79 nM	9.8 nM		C=CC(=O)N1CCN(c2nc(=O)n3c4nc(c(F)cc24)-c2c(F)cccc2OCCCCc2cnc(C(C)C)c-3c2)[C@@H](C)C1 (single isomer, unassigned) [Example 16a]

SMILES	IC50 (phospho-ERK)	IC50 [1]	IC50 (phospho-ERK; Homo sapiens, NCI-H358, 2 h)
C=CC(=O)N1CCN(c2nc(=O)n3c4nc(c(F)cc24)-c2c(F)cccc2OCCCCc2ccnc(C(C)C)c2-3)[C@@H](C)C1 (single isomer, unassigned) [Example 4a]	1.5 nM	2.4 nM	
C=CC(=O)N1C[C@H](C)N(c2nc(=O)n3c4nc(c(F)cc24)-c2c(F)cccc2OCCCCc2ccnc(C(C)C)c2-3)C[C@H]1C [Example 8, 2-[(2S,5R)-2,5-dimethyl-4-(prop-2-enoyl)piperazin-1-yl]-18,21-difluoro-6-(propan-2-yl)-10,11,12,13-tetrahydro-4H-1,19-ethenopyrido[4,3-f]-pyrimido[1,6-h][1,8,10]ben-zoxadiazacyclotridecin-4-one]		3.5 nM	2.2 nM

Reference: patent publication US20240043448A1, “Small Molecule Inhibitors of KRAS G12C Mutant” (Merck Sharp & Dohme LLC, priority 2019, published 2024)
